According to patent publication US11655235B2, “Pyrrolidine and piperidine compounds” (YUHAN CORPORATION, priority 2019, dated 2023):

Experiments:
Format in all cases: biochemical
DPP4 = DPP4 (Homo sapiens, UniProt P27487); assay: DPP4 inhibition, fluorogenic substrate H-Gly-Pro-AMC; design: purchased R&D Systems; conditions: recombinant human DPP4
recombinant human DPP9 = biological target: T1, recombinant human DPP9 (Homo sapiens, UniProt Q86TI2); assay: DPP9 inhibition, fluorogenic substrate H-Gly-Pro-AMC; conditions: recombinant human DPP9
T1 construct: purchased R&D Systems
T1 sequence (Q86TI2 whole entry): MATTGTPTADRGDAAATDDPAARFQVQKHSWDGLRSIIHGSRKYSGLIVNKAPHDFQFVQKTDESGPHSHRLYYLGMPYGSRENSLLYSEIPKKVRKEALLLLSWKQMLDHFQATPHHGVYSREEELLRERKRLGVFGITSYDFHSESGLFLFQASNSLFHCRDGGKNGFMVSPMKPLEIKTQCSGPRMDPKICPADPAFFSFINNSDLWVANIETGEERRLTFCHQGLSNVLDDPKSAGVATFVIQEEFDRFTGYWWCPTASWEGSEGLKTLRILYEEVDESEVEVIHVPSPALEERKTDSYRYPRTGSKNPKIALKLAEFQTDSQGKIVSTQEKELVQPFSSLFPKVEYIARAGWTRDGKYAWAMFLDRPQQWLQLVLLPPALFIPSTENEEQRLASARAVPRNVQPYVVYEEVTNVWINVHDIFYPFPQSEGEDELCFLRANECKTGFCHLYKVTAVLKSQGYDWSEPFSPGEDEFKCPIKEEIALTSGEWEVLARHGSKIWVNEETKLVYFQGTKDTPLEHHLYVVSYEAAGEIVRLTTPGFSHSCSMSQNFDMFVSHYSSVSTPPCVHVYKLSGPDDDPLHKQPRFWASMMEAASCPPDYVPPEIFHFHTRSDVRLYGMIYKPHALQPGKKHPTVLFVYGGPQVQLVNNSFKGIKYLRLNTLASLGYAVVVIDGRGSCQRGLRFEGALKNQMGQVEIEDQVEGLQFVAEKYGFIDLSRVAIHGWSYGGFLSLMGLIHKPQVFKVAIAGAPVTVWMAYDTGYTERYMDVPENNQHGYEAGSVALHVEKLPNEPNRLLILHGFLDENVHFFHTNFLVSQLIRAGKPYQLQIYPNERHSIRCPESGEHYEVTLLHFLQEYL
Protocol: (§1) The compounds according to the present technology were evaluated in terms of the inhibitory effect on the activity of dipeptidyl peptidases including FAP by using a substrate producing fluorescent substances upon enzymatic decomposition. The test was conducted at 25° C. to get a final reaction volume of 100 μL in a 96 black well plate. […] Briefly, the test compounds were dissolved in dimethyl sulfoxide (DMSO) at a concentration of 20 mM and then subjected to serial dilution, thereby creating an 8 point curve. As for the control group, a 6 point curve created by serial dilution of Talabostat in the same buffer solution was used. Fluorescence intensity was measured using a microplate reader (Flexstation3, Molecular Devices) under the wavelength condition exciting at 380 nm and reading the emission at 460 nm. The inhibitory effect of the test compounds was measured as a decrease (%) in the signal rate as compared to the control group without any inhibitor. Data was fixed to a logistic model with four variables and IC50 value was calculated using GraphPad Prism program. As for recombinant human DPP4 (R&D Systems), 25 mM tris (pH 8.0) buffer as a buffer solution and H-Gly-Pro-AMC (Bachem) as a substrate were used. As for recombinant human DPP7 (R&D Systems), 25 mM MES (pH 6.0) buffer as a buffer solution and Lys-Pro-AMC (Bachem) as a substrate were used. As for recombinant human DPP8 (PBS Bioscience), as a buffer solution, a 10 mM tris (pH 7.4) buffer comprising 10 mM of magnesium chloride and 0.05% of Tween 20, and Z-Ala-Pro-AMC (BPS Bioscience) as a substrate were used. As for recombinant human DPP9 (R&D Systems), a 25 mM tris (pH 8.0) buffer as a buffer solution and H-Gly-Pro-AMC (Bachem) as a substrate were used. As for recombinant human PREP (R&D System), as a buffer solution, a 25 mM tris (pH 7.5) buffer comprising 250 mM sodium chloride and 2.5 mM DTT (Dithiolthreitol), and Z-Gly-Pro-AMC (Bachem) as a substrate were used. The evaluation was made by using 10 ng of DPP4, PDD7, and PREP, 20 ng of DPP8, and 50 ng of DPP9 based on the final reaction. In the evaluation of DPP4, the test compounds were subjected to serial dilution in a buffer under the condition containing up to 0.1% of DMSO. In the evaluation of DPP7, DPP8, DPP9, and PREP, the test compounds were subjected to serial dilution in each buffer under the condition containing up to 0.5% of DMSO.

Recombinant human FAP = biological target: T2, Recombinant human FAP (Homo sapiens, UniProt Q12884); assay: FAP FRET assay, FGF21-sequence FRET peptide substrate; conditions: FRET peptide with human FGF21 sequence, 6 μM, 37° C.
T2 construct: purchased R&D systems
T2 sequence (Q12884 1-760): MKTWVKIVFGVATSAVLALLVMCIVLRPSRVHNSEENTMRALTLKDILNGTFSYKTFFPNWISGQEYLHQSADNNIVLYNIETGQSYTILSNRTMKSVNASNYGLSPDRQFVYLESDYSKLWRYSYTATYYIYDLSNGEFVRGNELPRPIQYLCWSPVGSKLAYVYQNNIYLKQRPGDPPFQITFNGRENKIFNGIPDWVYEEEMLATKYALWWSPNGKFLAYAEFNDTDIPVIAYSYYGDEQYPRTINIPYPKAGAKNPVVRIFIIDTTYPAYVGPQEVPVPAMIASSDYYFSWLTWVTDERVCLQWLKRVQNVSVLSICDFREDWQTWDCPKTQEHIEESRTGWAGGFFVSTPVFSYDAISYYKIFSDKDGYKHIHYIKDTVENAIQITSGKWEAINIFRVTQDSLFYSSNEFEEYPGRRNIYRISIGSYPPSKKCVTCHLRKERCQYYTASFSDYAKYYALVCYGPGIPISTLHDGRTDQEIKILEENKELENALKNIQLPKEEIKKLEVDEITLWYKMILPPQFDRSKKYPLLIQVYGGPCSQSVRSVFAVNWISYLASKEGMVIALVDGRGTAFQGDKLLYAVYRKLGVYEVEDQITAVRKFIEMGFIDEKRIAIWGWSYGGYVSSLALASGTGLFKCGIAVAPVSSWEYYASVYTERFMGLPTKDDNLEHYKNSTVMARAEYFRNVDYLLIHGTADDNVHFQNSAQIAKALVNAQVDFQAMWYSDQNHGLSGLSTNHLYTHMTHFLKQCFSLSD
Outline: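 Recombinant human FAP, 10 ng per reaction, in 50 mM HEPES pH 7.2 with 150 mM NaCl, 0.1 mg/ml BSA, 1 mM EDTA; HyLite Fluor 488/QXL 520 FRET peptide of human FGF21 sequence at 6 μM final, ≤0.1% DMSO, 37° C. IC50 from 8-point curves by four-parameter logistic fit.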

recombinant human PREP = biological target: T3, recombinant human PREP (Homo sapiens, UniProt P48147); assay: PREP inhibition, fluorogenic substrate Z-Gly-Pro-AMC; conditions: Inhibitory Activity (IC50, nM) PREP, recombinant human PREP
T3 construct: purchased R&D System
T3 sequence (P48147 1-710): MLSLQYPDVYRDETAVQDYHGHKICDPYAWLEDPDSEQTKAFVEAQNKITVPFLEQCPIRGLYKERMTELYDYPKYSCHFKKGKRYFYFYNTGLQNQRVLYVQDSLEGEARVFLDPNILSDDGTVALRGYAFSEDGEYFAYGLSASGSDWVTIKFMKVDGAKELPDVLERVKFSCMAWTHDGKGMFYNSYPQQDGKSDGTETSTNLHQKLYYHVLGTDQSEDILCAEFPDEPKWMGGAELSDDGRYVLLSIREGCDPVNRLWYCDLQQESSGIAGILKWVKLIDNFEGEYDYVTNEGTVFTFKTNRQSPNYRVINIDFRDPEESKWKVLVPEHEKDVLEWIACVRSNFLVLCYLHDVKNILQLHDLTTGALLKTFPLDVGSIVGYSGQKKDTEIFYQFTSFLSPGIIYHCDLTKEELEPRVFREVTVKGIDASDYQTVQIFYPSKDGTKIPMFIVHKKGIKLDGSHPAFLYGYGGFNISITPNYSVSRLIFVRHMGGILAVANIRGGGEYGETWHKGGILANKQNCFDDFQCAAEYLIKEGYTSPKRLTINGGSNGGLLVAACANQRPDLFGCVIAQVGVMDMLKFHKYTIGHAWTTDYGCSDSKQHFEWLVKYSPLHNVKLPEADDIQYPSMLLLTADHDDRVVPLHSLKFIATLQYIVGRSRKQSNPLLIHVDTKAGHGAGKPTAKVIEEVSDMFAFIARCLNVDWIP
Protocol: as §1

recombinant human DPP7 = biological target: T4, recombinant human DPP7 (Homo sapiens, UniProt Q9UHL4); assay: DPP7 inhibition, fluorogenic substrate Lys-Pro-AMC; conditions: recombinant human DPP7
T4 construct: purchased R&D Systems
Outline: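 Enzyme per reaction: 50 ng DPP9, 20 ng DPP8, 10 ng each DPP7 and PREP. Compounds were serially diluted (8 points, up to 0.5% DMSO) and incubated at 25 °C.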

Sequence of DPP4 (P27487 whole entry): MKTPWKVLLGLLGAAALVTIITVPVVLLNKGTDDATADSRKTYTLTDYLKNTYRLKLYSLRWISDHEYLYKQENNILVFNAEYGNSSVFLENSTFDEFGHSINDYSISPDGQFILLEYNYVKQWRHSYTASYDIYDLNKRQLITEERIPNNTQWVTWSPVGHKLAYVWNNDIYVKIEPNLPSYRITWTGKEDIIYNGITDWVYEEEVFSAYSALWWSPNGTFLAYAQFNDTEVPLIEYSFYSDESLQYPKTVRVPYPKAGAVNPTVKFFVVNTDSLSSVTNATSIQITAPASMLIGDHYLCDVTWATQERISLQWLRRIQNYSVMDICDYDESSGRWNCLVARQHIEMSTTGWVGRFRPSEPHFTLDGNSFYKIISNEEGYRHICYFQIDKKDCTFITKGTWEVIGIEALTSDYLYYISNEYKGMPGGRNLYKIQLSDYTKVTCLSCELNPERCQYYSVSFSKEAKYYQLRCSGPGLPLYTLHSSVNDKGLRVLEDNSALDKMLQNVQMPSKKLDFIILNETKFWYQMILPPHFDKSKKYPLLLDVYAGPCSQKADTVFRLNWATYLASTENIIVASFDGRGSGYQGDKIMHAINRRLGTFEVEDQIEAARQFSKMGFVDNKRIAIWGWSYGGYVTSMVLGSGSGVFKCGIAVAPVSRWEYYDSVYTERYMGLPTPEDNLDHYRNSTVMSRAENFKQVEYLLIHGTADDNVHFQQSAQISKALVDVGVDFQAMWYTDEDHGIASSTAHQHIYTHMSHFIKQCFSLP

IC50 (DPP4) [nM] | IC50 (recombinant human DPP9) [nM] | IC50 (Recombinant human FAP) [nM] | IC50 (recombinant human PREP) [nM] | IC50 (recombinant human DPP7) [nM] | Structure (SMILES)
1120 | 2950 | 5.3 | 1870 | 11100 | N#C[C@@H]1C[C@H](F)CN1C(=O)CN1CC[C@@H](Nc2c(F)ccc3ncccc23)C1 [Example 173, (2S,4S)-4-fluoro-1-[2-[(3R)-3-[(6-fluoro-5-quinolyl)amino]pyrrolidin-1-yl]acetyl]pyrrolidine-2-carbonitrile]
3020 | 1990 | 2.6 | 2440 | 846 | N#C[C@@H]1C[C@H](F)CN1C(=O)CN1CC[C@@H](Nc2cc(F)cc3ncccc23)C1 [Example 174, (2S,4S)-4-fluoro-1-[2-[(3R)-3-[(7-fluoro-5-quinolyl)amino]pyrrolidin-1-yl]acetyl]pyrrolidine-2-carbonitrile]
3420 | 1170 | 2.6 | 2920 | 46.9 | COc1cc(N[C@@H]2CCN(CC(=O)N3C[C@@H](F)C[C@H]3C#N)C2)c2cccnc2c1 [Example 177, (2S,4S)-4-fluoro-1-[2-[(3R)-3-[(7-methoxy-5-quinolyl)amino]pyrrolidin-1-yl]acetyl]pyrrolidine-2-carbonitrile]
4070 | 6690 | 3.3 | 5360 | 819 | N#C[C@@H]1C[C@H](F)CN1C(=O)CN1CC[C@@H](Nc2cc(C(F)(F)F)cc3ncccc23)C1 [Example 182, (2S,4S)-4-fluoro-1-[2-[(3R)-3-[[7-(trifluoromethyl)-5-quinolyl]amino]pyrrolidin-1-yl]acetyl]pyrrolidine-2-carbonitrile]

Continued, molecule first:

Structure (SMILES) | IC50 (DPP4) [nM] | IC50 (recombinant human DPP9) [nM] | IC50 (Recombinant human FAP) [nM] | IC50 (recombinant human PREP) [nM] | IC50 (recombinant human DPP7) [nM]
CN(c1ccc(OC(F)(F)F)c2ncccc12)[C@H]1CCN(CC(=O)N2C[C@@H](F)C[C@H]2C#N)C1 [Example 160, (2S,4S)-4-fluoro-1-[2-[(3S)-3-[methyl-[8-(trifluoromethoxy)-5-quinolyl]amino]pyrrolidin-1-yl]acetyl]pyrrolidine-2-carbonitrile] | 1780 | 2820 | 4.9 | 1080 | 77.8
N#C[C@@H]1C[C@H](F)CN1C(=O)CN1CC[C@@H](Nc2cnc3nc(Cl)ccc3c2)C1 [Example 172, (2S,4S)-4-fluoro-1-[2-[(3R)-3-[(7-chloro-1,8-naphthyridin-3-yl)amino]pyrrolidin-1-yl]acetyl]pyrrolidine-2-carbonitrile] | 1870 | 5400 | 9.3 | 4240 | 4900
COc1ccc(N[C@@H]2CCN(CC(=O)N3C[C@@H](F)C[C@H]3C#N)C2)c2cccnc12 [Example 178, (2S,4S)-4-fluoro-1-[2-[(3R)-3-[(8-methoxy-5-quinolyl)amino]pyrrolidin-1-yl]acetyl]pyrrolidine-2-carbonitrile] | 1360 | 2570 | 10.1 | 2350 | 5960
Cc1cnc2cccc(N[C@@H]3CCN(CC(=O)N4C[C@@H](F)C[C@H]4C#N)C3)c2c1 [Example 179, (2S,4S)-4-fluoro-1-[2-[(3R)-3-[(3-methyl-5-quinolyl)amino]pyrrolidin-1-yl]acetyl]pyrrolidine-2-carbonitrile] | 1940 | 2560 | 3.6 | 2930 | 401
Cc1ccc2ncccc2c1N[C@@H]1CCN(CC(=O)N2C[C@@H](F)C[C@H]2C#N)C1 [Example 180, (2S,4S)-4-fluoro-1-[2-[(3R)-3-[(6-methyl-5-quinolyl)amino]pyrrolidin-1-yl]acetyl]pyrrolidine-2-carbonitrile] | 1020 | 3180 | 6.2 | 1560 | 6790
Cc1ccc(N[C@@H]2CCN(CC(=O)N3C[C@@H](F)C[C@H]3C#N)C2)c2cccnc12 [Example 181, (2S,4S)-4-fluoro-1-[2-[(3R)-3-[(8-methyl-5-quinolyl)amino]pyrrolidin-1-yl]acetyl]pyrrolidine-2-carbonitrile] | 1060 | 4620 | 2.6 | 4670 | 215
N#C[C@@H]1C[C@H](F)CN1C(=O)CN1CC[C@@H](Nc2ccc(C(F)(F)F)c3ncccc23)C1 [Example 183, (2S,4S)-4-fluoro-1-[2-[(3R)-3-[[8-(trifluoromethyl)-5-quinolyl]amino]pyrrolidin-1-yl]acetyl]pyrrolidine-2-carbonitrile] | 1840 | 6770 | 2.2 | 3370 | 1370
N#C[C@@H]1C[C@H](F)CN1C(=O)CN1CC[C@@H](Nc2cccc3ncc(Cl)cc23)C1 [Example 185, (2S,4S)-4-fluoro-1-[2-[(3R)-3-[(3-chloro-5-quinolyl)amino]pyrrolidin-1-yl]acetyl]pyrrolidine-2-carbonitrile] | 995 | 2750 | 2.1 | 3550 | 1300
N#C[C@@H]1C[C@H](F)CN1C(=O)CN1CC[C@@H](Nc2ccc(OC(F)(F)F)c3ncccc23)C1 [Example 186, (2S,4S)-4-fluoro-1-[2-[(3R)-3-[[8-(trifluoromethoxy)-5-quinolyl]amino]pyrrolidin-1-yl]acetyl]pyrrolidine-2-carbonitrile] | 2220 | 4410 | 2.7 | 3590 | 2020
